Data reported in ChEMBL document CHEMBL5058644, “Data for DCP probe JNJ-39758979” (2022).

What was measured:
Histamine H4 receptor [1] = molecular target: T1, Histamine H4 receptor (Homo sapiens, UniProt Q9H3N8); assay: Binding assay
Histamine H4 receptor [2] = molecular target: T1, Histamine H4 receptor; assay: Cell based cAMP Assays (pA2); details: read-out: pA2 (converted)

Ki (Histamine H4 receptor [1]): > 10 µM (not active)
Kb (Histamine H4 receptor [2]): > 100 µM (not active)
SMILES: CN[C@@H]1CCN(c2cc(C(F)(F)F)nc(N)n2)C1
